# Source: patent US7501281B2, “Compositions, methods and kits related to thrombin, Notch signaling and stamatogenesis and growth of stem cells” (Maine Medical Center Research Institute, priority 2003, dated 2009)
# Marks after values point to notes of the source that are not given here.
# How the values were obtained:
# [1] = system: NCSC populations; experiment: Clonogenic differentiation and serial subcloning assays of NCSC clones (secondary NCSC); type: cell-based, murine; design: G / Sm / G + Sm: unit not given here; details: for NCSC clones that did not express either gliogenic or neurogenic differentiation markers: after 7 days of expansion; for clones that were trifatent (neurons, glial, and smooth muscle progeny): secondary clones established from treated founder clones
# Experimental: Clonogenic assays were performed as described (Stemple et al., 1992, Cell 71:973-985). Briefly, populations of murine NCSC were plated at a clonal density and maintained for a maximum of 14 days in Morrison media supplemented with 15% chick embryo extract (Morrison et al., 1999, Cell 96:737-749). The resulting clones were fixed in an acetic acid:ethanol solution (2:1) and stained with antibodies against peripherin (Chemicon) to detect neurons, smooth muscle actin (Sigma) to detect myofibroblasts, and GFAP (Chemicon) to detect Schwann cells. Clones were scored based on the appearance of just one phenotypic representative. The number and percentage of clones containing neurons only (N), Schwann cells only (S), myofibroblasts only (M), N+S, N+M, N+S+M, and S+M were scored at day 14 unless otherwise stated. The production of each representative phenotype in each individual clone was also scored to complement the clonal population assay.
# In order to generate secondary NCSC populations, founder clones originating from differentiating E10 clones at distinct time points during NCSC differentiation (days 2 through 18) were treated with trypsin and replated at a cell clonal density using methods previously described (Kubu et al., 2000, Genomics 70:150-152). The resulting cells were subjected to immunofluorescence microscopy using both p75^+ and P0^− antibodies (Kubu et al., 2000, Genomics 70:150-152) and the p75^+/P0^− cells identified as putative stem cells. All non-p75^+/P0^− cells were removed from the dish with a tungsten needle. The cultures of secondary NCSC clones were subjected to the clonogenic assay as described above.
# Specifically, clonogenic differentiation and serial subcloning assays were performed using NCSC clones incubated with either thrombin, sDl1, sJ1 or TRAP.
# Briefly, presented are the number of colonies with the resulting differentiation profiles (mean±SD of three experiments resulting from individual NCSC isolations).
# A genetic approach was used to determine whether thrombin, TRAP, or sJ1 were able to promote cell cycle progression in the NCSC population. Thus, a dnFGFR1 construct was expressed in the NSC cells and the clonogenic differentiation assay conducted in the presence of either sJ1, thrombin or no additional supplement.
# [2] = system: FGF1.A transcript in murine NCSC; experiment: RT-PCR analysis of FGF1.A mRNA expression in NCSC; type: cell-based; details: 48 hours; 7.5 nM sJ1, 5.0 nM sDl1, 10 μg/ml α-thrombin or 5 μg/ml TRAP
# [3] = system: neurosphere cultures and p75+/P0- neural crest stem cells; experiment: RT-PCR of self-renewal transcripts Nestin, Nucleostemin and Bmi1; type: cell-based, murine; details: for relative expression of Nestin, Nucleostemin and Bmi1 transcripts: primary and secondary neurosphere cultures
# Experimental: Clonal NCSC neurospheres were generated and allowed to expand for 10 days in either 7.5 nM sJ1, 5 nM sD1, 5 μg/ml α-thrombin, and no additive (control) (FIG. 13A) as described elsewhere herein. Clonal NCSC neurospheres were generated in a feeder-layer coculture system using a monolayer of stable full-length (FL) Jagged1 NIH 3T3 cell transfectants or insert-less NIH 3T3 cell transfectants and treated with either 5 μg/ml thrombin or without further supplementation (control) (FIG. 13B). The results are presented as representative photomicrographs of the spheres obtained under each condition after 14 days of treatment. […] Clonal neurospheres were generated in the presence of either 5 μg/ml α-thrombin, 7.5 nM sJ1, 5 nM sDl1 or no supplement (control) and expanded for 14 days. RT-PCR was used to determine the steady-state mRNA level for three markers of neural stem cells (Nestin, Nucleostemin and Bmi1). An increase in the expression of all three transcripts compared to control was observed. […] Approximately 5×10^2 NCSC were plated in Morrison media supplemented with either 7.5 nM sJ1, 5 μg/ml α-thrombin, 5 nM sD1, 2 ng/ml BMP2 or no additive (control) for 48 hours. The results are presented as the percent of control (mean±standard deviation of three RT-PCR experiments) performed in triplicate. No change in the steady-state level mRNA levels of the three markers relative to actin was observed.
# RT-PCR was performed with 1 μg RNA using the Platinum Taq One Step RT-PCR kit (Invitrogen) as follows: RT (30 minutes at 50° C.), PCR (40 cycles at 94° C. for 15 seconds, at 58° C. for 30 seconds and 72° C. for 1 minute). All amplified cDNA was visualized with ethidium bromide followed by 1.5% agarose gel electrophoresis. RT-PCR analysis of fgf and gapdh was performed as previously described elsewhere herein. […] Each reaction product was measured as a ratio relative to the amplification product of actin and samples were run in triplicate. […]
# [4] = system: clonal cortical neurospheres; experiment: Cortical neurosphere model, secondary sphere formation; type: cell-based, murine; details: for F/SP × 10^2 / Cells/Founder (F) / Secondary Spheres (SP): day 10; for Cells/Founder (F): mean±SD; for Secondary Spheres (SP): from dissociation of founder spheres, mean±SD of three experiments; for secondary spheres per primary sphere: primary spheres grown 2 weeks with the factor, secondary spheres in standard media
# Source text: The E14 prefrontal ventricular zone was dissected and plated at a clonal neurosphere-forming density in the presence of either sJ1, sDl1, thrombin, TRAP or no supplementation. After 2 weeks, the clones were dissociated to single cells and secondary spheres were generated using standard media with no supplementation (Reynolds et al., 1992, J. Neurosci. 12:4565-4574).
# Secondary spheres (SP) are formed from the dissociation of founder (F) spheres. The data presented are the number of colonies (mean±SD of three experiments). (*=p≦0.05).
# [5] = colonies from secondary NCSC, mean±SD
# [6] = dnFGFR1-transduced NCSC, trifatent
# [7] = glial-only colonies from secondary NCSC, mean±SD
# [8] = secondary stem cells from NCSC founders after ten days of expansion, mean±SD
# [9] = smooth muscle-only colonies from secondary NCSC, mean±SD
# [10] = trifatent colonies from secondary NCSC, mean±SD
Molecule,NCSC clones that did not express either gliogenic or neurogenic differentiation markers [1],"G + Sm [1, 5]","N + G [1, 5]","N + Sm [1, 5]",G ([1]; dnFGFR1-transduced NCSC),G + Sm ([1]; dnFGFR1-transduced NCSC),N + G ([1]; dnFGFR1-transduced NCSC),N + Sm ([1]; dnFGFR1-transduced NCSC),Secondary NSSC/Founder ([1]; dnFGFR1-transduced NCSC),Sm ([1]; dnFGFR1-transduced NCSC),"G [1, 7]","clones that were trifatent (neurons, glial, and smooth muscle progeny) [1]","Secondary NSSC/Founder [1, 8]","Sm [1, 9]","N + G + Sm [1, 10]",expression of the FGF1.A transcript [2],F/SP × 10^2 [4],Cells/Founder (F) [4],Secondary Spheres (SP) [4],secondary spheres per primary sphere [4],further results
Thrombin,75±11%,2.0 ± 2.1,3.93 ± 3.8,4.5 ± 2.1,1.7 ± 3.1,6.9 ± 8.3,9.8 ± 3.2,5.5 ± 1.5,13.5 ± 2.9,24.13 ± 1.4,0 ± 0,86.8±2.1%,36.8 ± 6.3,2.6 ± 1.01,86.8 ± 2.1,induced,13%*,488 ± 166*,64 ± 11,55±14,"N ([1]; dnFGFR1-transduced NCSC): 5.9 ± 1.7; N + G + Sm [1, 6]: 46.0 ± 13.6; relative expression of Nestin, Nucleostemin and Bmi1 transcripts [3]: elevated"
"sJ1: Soluble Jagged1, amino acid residues from about 1 to 1067 (SEQ ID NO:3) of full-length Jagged1",84±7%,3.4 ± 2.8,7.0 ± 5.6,1.5 ± 1.7,9.3 ± 2.7,10.3 ± 6.3,7.2 ± 4.5,6.2 ± 7.0,13.5 ± 4.7,16.4 ± 8.5,7.8 ± 1.4,74.1±9%,26.2 ± 6,6.2 ± 1.0,74.1 ± 9.1,induced,10%*,527 ± 170*,55 ± 14,64±11,"N + G + Sm [1, 6]: 48.0 ± 11.8; relative expression of Nestin, Nucleostemin and Bmi1 transcripts [3]: elevated"
"sDl1: soluble non-transmembrane form of the Notch ligand Delta1 (protein, left off: small tags and cut ends, soluble non-transmembrane form of the Notch ligand Delta1) QVWSSGVFELKLQEFVNKKGLLGNRNCCRGGAGPPPCACRTFFRVCLKHYQASVSPEPPCTYGSAVTPVLGVDSFSLPDGGGADSAFSNPIRFPFGFTWPGTFSLIIEALHTDSPDDLATENPERLISRLATQRHLTVGEEWSQDLHSSGRTDLKYSYRFVCDEHYYGEGCSVFCRPRDDAFGHFTCGERGEKVCNPGWKGPYCTEPICLPGCDEQHGFCDKPGECKCRVGWQGRYCDECIRYPGCLHGTCQQPWQCNCQEGWGGLFCNQDLNYCTHHKPCKNGATCTNTGQGSYTCSCRPGYTGATCELGIDECDPSPCKNGGSCTDLENSYSCTCPPGFYGKICELSAMTCADGPCFNGGRCSDSPDGGYSCRCPVGYSGFNCEKKIDYCSSSPCSNGAKCVDLGDAYLCRCQAGFSGRHCDDNVDDCASSPCANGGTCRDGVNDFSCTCPPGYTGRNCSAPVSRCEHAPCHNGATCHERGHRYVCECARGYGGPNCQFLLPELPPGPAVVDLTEKLEGQGGPFPW",0±0%,3.4 ± 2.8,0,0,–,–,–,–,–,–,72 ± 6.4,0.5%,0.6 ± 1.0,20.5 ± 6.5,0.5 ± 0.7,did not influence,2.0%,150 ± 69*,3 ± 3,3±3,"levels of Nestin, Nucleostemin and Bmi1 transcripts ([3]; p75+/P0- neural crest stem cells, 24 and 48 hours): sharply decreased"
